According to ChEMBL document CHEMBL1201862, “PubChem BioAssay data set” (2004):
The source made the active and inactive calls.

Legend:
[1] = target: T1, Replicative DNA helicase DnaB (Mycobacterium tuberculosis, UniProt P9WMR3); experiment: DnaB intein splicing inhibitors, dose response, biochemical, cell-free fluorescence (AID 449749); type: functional
T1 sequence (P9WMR3 whole entry): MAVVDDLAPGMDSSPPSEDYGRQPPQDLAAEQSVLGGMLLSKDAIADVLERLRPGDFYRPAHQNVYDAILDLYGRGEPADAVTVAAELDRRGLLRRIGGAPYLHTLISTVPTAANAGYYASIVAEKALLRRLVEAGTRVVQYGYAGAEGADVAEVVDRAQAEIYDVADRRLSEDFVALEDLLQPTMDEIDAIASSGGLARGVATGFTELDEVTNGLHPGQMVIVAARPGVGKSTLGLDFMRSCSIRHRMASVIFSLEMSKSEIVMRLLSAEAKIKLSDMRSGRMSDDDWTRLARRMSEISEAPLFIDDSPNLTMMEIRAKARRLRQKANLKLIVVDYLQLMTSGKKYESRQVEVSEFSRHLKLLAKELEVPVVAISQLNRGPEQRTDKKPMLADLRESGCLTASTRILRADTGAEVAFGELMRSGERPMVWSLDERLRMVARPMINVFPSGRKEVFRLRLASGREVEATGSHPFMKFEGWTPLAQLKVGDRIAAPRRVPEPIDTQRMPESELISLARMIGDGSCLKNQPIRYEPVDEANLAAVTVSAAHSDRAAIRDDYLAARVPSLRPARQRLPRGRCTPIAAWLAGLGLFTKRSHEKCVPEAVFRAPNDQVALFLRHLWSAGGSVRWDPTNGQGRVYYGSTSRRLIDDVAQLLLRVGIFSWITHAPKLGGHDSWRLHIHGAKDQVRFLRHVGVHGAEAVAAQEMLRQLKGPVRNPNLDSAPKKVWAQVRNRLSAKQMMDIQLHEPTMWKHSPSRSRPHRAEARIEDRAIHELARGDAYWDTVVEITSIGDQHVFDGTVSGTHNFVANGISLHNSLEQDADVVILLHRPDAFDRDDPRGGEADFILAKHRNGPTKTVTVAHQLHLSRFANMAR

[2] = target: Protein disulfide-isomerase A6 (Homo sapiens, UniProt Q15084); experiment: Secondary Assay for Selectivity of PDI Inhibitors (against ERp5) Measured in Biochemical System Using Plate Reader - 2137-04_Inhibitor_Dose_DryPowder_Activity_Set3.
[3] = target: T2, Protein disulfide-isomerase (Homo sapiens, UniProt P07237); experiment: PDI inhibitors, insulin turbidity readout, confirmation, biochemical, dry powder samples, set 2 (AID 652146)
[4] = target: T2, Protein disulfide-isomerase; experiment: PDI inhibitors, insulin aggregation turbidity, dose response, biochemical, absorbance, cherry-picked samples (AID 602350); type: functional
Protein RecA = target: T3, Protein RecA (Mycobacterium tuberculosis, UniProt P9WHJ3); experiment: Fluorescence Cell-Free Homogeneous Dose Retest to Identify Inhibitors of RecA-Intein Splicing Activity. [Related pubchem assays (depositor defined):AID2097, AID2223, AID489010, AID492950]; type: functional
T3 sequence (P9WHJ3 whole entry): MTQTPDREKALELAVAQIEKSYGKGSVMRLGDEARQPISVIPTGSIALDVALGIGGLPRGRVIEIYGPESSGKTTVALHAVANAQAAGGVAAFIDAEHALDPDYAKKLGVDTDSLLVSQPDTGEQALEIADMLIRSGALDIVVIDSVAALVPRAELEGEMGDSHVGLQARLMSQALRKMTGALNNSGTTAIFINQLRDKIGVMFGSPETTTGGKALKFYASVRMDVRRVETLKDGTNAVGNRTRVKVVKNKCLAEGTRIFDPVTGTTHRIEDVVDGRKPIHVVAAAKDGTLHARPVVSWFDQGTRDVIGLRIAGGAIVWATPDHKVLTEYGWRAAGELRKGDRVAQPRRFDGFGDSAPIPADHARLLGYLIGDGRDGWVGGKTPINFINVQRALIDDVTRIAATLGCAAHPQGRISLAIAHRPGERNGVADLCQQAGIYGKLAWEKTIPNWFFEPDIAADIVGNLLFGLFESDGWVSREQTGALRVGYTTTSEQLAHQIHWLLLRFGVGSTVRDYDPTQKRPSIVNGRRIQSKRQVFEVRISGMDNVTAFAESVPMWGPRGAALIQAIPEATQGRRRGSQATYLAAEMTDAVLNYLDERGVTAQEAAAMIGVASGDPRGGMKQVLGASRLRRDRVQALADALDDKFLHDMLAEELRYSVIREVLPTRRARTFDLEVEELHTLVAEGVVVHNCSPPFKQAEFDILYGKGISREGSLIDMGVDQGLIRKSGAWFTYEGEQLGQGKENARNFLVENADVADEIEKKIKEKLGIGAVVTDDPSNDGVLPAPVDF

[5] = Luminescence Cell-Based Dose Response HTS to Identify Inhibitors of 5'UTR Stem-Loop Driven Prion Protein mRNA Translation in H4 Neuroglioblastoma Cells. [Related pubchem assays: 1827 (Project Summary), 1813 (Primary HTS)]; type: functional
[6] = inhibitors of SNCA 5'UTR-driven reporter translation, confirmation, H4 neuroglioma cells, luminescence (AID 1988); type: functional, cell-based
[7] = HEK293 cell cytotoxicity, dose response, cytotoxicity control, HEK293T, ATP luminescence, dry powder (AID 652119); type: functional, cell-based
[8] = inhibitors of firefly luciferase expression or activity, dose response, H4 neuroglioma cells, luminescence (AID 1990); type: functional, cell-based

T2 sequence (P07237 whole entry): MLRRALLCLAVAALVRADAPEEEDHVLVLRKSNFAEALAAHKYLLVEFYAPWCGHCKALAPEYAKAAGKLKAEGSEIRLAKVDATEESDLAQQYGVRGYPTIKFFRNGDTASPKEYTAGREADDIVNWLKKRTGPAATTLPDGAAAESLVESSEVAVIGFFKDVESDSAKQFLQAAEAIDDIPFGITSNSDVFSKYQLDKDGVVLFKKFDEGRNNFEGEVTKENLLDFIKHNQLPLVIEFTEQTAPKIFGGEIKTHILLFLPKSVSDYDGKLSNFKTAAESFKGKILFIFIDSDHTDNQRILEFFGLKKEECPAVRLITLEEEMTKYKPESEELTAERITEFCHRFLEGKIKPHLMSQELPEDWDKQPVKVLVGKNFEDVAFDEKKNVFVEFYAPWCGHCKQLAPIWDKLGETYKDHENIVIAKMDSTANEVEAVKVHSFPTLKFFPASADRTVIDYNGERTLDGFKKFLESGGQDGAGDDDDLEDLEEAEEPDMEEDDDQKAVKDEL
Chain of Protein disulfide-isomerase A6 (Q15084 whole entry): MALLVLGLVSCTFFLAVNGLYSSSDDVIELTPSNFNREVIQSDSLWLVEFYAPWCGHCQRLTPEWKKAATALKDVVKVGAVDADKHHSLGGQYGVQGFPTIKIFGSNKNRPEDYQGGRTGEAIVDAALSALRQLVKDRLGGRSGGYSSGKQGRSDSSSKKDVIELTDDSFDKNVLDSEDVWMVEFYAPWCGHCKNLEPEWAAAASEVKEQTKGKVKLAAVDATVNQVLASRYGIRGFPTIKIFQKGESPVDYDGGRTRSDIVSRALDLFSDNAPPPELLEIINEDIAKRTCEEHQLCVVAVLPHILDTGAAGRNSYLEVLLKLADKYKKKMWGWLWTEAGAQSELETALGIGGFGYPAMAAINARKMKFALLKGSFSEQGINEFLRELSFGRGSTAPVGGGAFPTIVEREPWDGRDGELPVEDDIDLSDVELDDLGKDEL

CCOC(=O)C1(CCOc2ccccc2)CCN(Cc2ccc(O)c(Cl)c2)CC1
AC50 [1]: 99.6 µM (active)
AC50 [2]: 30 µM (inactive)
AC50 [3]: 2 µM (active)
AC50 [4]: 599 nM (active)
EC50 (Protein RecA): > 380 µM (inactive)
EC50 [5]: > 120 µM (not active)
EC50 [6]: > 120 µM (not active)
AC50 [7]: > 52 µM (inactive)
EC50 [8]: > 120 µM (not active)
